Results reported in ChEMBL document CHEMBL5518215, “Unlocking Antibacterial Potential: Key-Site-Based Regulation of Antibacterial Spectrum of Peptides” (J Med Chem, 2024).

How the values were obtained:
Escherichia coli [1] = assay: Antimicrobial activity against Escherichia coli 25922 assessed as absence bacterial growth measured after 18 to 24 hrs incubation by NCCLS method; type: functional; conditions: time 18-24 hrs
Escherichia coli [2] = assay: Antimicrobial activity against Escherichia coli K88 assessed as absence bacterial growth measured after 18 to 24 hrs incubation by NCCLS method; type: functional; conditions: time 18-24 hrs
Salmonella typhimurium [3] = assay: Antimicrobial activity against Salmonella typhimurium 14028 assessed as absence bacterial growth measured after 18 to 24 hrs incubation by NCCLS method; type: functional, Salmonella enterica subsp. enterica serovar Typhimurium; conditions: Salmonella enterica, time 18-24 hrs
[4] = Antimicrobial activity against Salmonella pullorum C7913 assessed as absence bacterial growth measured after 18 to 24 hrs incubation by NCCLS method; type: functional, Salmonella enterica subsp. enterica serovar Pullorum; conditions: Salmonella enterica, time 18-24 hrs
Pseudomonas aeruginosa [5] = assay: Antimicrobial activity against Pseudomonas aeruginosa 27853 assessed as absence bacterial growth measured after 18 to 24 hrs incubation by NCCLS method; type: functional; conditions: time 18-24 hrs
Acinetobacter baumannii [6] = assay: Antimicrobial activity against Acinetobacter baumannii 1.6769 assessed as absence bacterial growth measured after 18 to 24 hrs incubation by NCCLS method; type: functional; conditions: time 18-24 hrs
Enterococcus faecalis [7] = assay: Antimicrobial activity against Enterococcus faecalis 29212 assessed as absence bacterial growth measured after 18 to 24 hrs incubation by NCCLS method; type: functional; conditions: time 18-24 hrs
Listeria monocytogenes [8] = assay: Antimicrobial activity against Listeria monocytogenes 1.10753 assessed as absence bacterial growth measured after 18 to 24 hrs incubation by NCCLS method; type: functional; conditions: time 18-24 hrs
Bacillus cereus [9] = assay: Antimicrobial activity against Bacillus cereus 1.932 assessed as absence bacterial growth measured after 18 to 24 hrs incubation by NCCLS method; type: functional; conditions: time 18-24 hrs
Staphylococcus aureus [10] = assay: Antimicrobial activity against Staphylococcus aureus 29213 assessed as absence bacterial growth measured after 18 to 24 hrs incubation by NCCLS method; type: functional; conditions: time 18-24 hrs
Staphylococcus aureus [11] = assay: Antimicrobial activity against Methicillin-resistant Staphylococcus aureus 43300 assessed as absence bacterial growth measured after 18 to 24 hrs incubation by NCCLS method; type: functional; conditions: time 18-24 hrs
[12] = tested on: Staphylococcus epidermidis; assay: Antimicrobial activity against Staphylococcus epidermidis 12228 assessed as absence bacterial growth measured after 18 to 24 hrs incubation by NCCLS method; type: functional; conditions: time 18-24 hrs
Staphylococcus aureus [13] = assay: Antimicrobial activity against Staphylococcus aureus 29213 assessed as absence bacterial growth measured after 18 to 24 hrs incubation by NCCLS m; type: functional; conditions: time 18-24 hrs
Escherichia coli [14] = assay: Antimicrobial activity against Escherichia coli 25922 assessed as bacterial killing measured after 16 hrs incubation; type: functional
Escherichia coli [15] = assay: Antimicrobial activity against Escherichia coli K88 assessed as bacterial killing measured after 16 hrs incubation; type: functional
Salmonella typhimurium [16] = assay: Antimicrobial activity against Salmonella typhimurium 14028 assessed as bacterial killing measured after 16 hrs incubation; type: functional, Salmonella enterica subsp. enterica serovar Typhimurium; conditions: Salmonella enterica
Salmonella typhimurium [17] = assay: Antimicrobial activity against Salmonella typhimurium C7731 assessed as bacterial killing measured after 16 hrs incubation; type: functional, Salmonella enterica subsp. enterica serovar Typhimurium; conditions: Salmonella enterica
[18] = Antimicrobial activity against Salmonella pullorum C7913 assessed as bacterial killing measured after 16 hrs incubation; type: functional, Salmonella enterica subsp. enterica serovar Pullorum; conditions: Salmonella enterica
Pseudomonas aeruginosa [19] = assay: Antimicrobial activity against Pseudomonas aeruginosa 27853 assessed as bacterial killing measured after 16 hrs incubation; type: functional
Acinetobacter baumannii [20] = assay: Antimicrobial activity against Acinetobacter baumannii 1.6769 assessed as bacterial killing measured after 16 hrs incubation; type: functional
Enterococcus faecalis [21] = assay: Antimicrobial activity against Enterococcus faecalis 29212 assessed as bacterial killing measured after 16 hrs incubation; type: functional
Listeria monocytogenes [22] = assay: Antimicrobial activity against Listeria monocytogenes 1.10753 assessed as bacterial killing measured after 16 hrs incubation; type: functional
Bacillus cereus [23] = assay: Antimicrobial activity against Bacillus cereus 1.932 assessed as bacterial killing measured after 16 hrs incubation; type: functional
Staphylococcus aureus [24] = assay: Antimicrobial activity against Staphylococcus aureus 29213 assessed as bacterial killing measured after 16 hrs incubation; type: functional
Staphylococcus aureus [25] = assay: Antimicrobial activity against Methicillin-resistant Staphylococcus aureus 43300 assessed as bacterial killing measured after 16 hrs incubation; type: functional
[26] = tested on: Staphylococcus epidermidis; assay: Antimicrobial activity against Staphylococcus epidermidis 12228 assessed as bacterial killing measured after 16 hrs incubation; type: functional
Staphylococcus aureus [27] = assay: Antimicrobial activity against Staphylococcus aureus 25923 assessed as bacterial killing measured after 16 hrs incubation; type: functional
Salmonella typhimurium [28] = assay: Antimicrobial activity against Salmonella typhimurium C7731 assessed as absence bacterial growth measured after 18 to 24 hrs incubation by NCCLS method; type: functional, Salmonella enterica subsp. enterica serovar Typhimurium; conditions: Salmonella enterica, time 18-24 hrs
Escherichia coli [29] = assay: Antimicrobial activity against Escherichia coli 25922 assessed as absence bacterial growth measured after 18 to 24 hrs incubation in presence of 50% serum by NCCLS method; type: functional; conditions: time 18-24 hrs
Escherichia coli [30] = assay: Antimicrobial activity against Escherichia coli 25922 assessed as absence bacterial growth measured after 18 to 24 hrs incubation in presence of 25% serum by NCCLS method; type: functional; conditions: time 18-24 hrs
Escherichia coli [31] = assay: Antimicrobial activity against Escherichia coli 25922 assessed as absence bacterial growth measured after 18 to 24 hrs incubation in presence of 12.5% serum by NCCLS method; type: functional; conditions: time 18-24 hrs
[32] = Hemolytic activity in human RBC at effective concentration at 128 uM measured after 1 hr by microplate reader relative to control; type: toxicity, cell-based, Erythrocyte; conditions: human red blood cells (erythrocytes), read-out: Activity
Escherichia coli [33] = assay: Antimicrobial activity against Escherichia coli 25922 assessed as absence bacterial growth measured after 18 to 24 hrs incubation in presence of NaCl by NCCLS method; type: functional; conditions: time 18-24 hrs
Escherichia coli [34] = assay: Antimicrobial activity against Escherichia coli 25922 assessed as absence bacterial growth measured after 18 to 24 hrs incubation in presence of KCl by NCCLS method; type: functional; conditions: time 18-24 hrs
Escherichia coli [35] = assay: Antimicrobial activity against Escherichia coli 25922 assessed as absence bacterial growth measured after 18 to 24 hrs incubation in presence of NH4Cl by NCCLS method; type: functional; conditions: time 18-24 hrs
Escherichia coli [36] = assay: Antimicrobial activity against Escherichia coli 25922 assessed as absence bacterial growth measured after 18 to 24 hrs incubation in presence of MgCl2 by NCCLS method; type: functional; conditions: time 18-24 hrs
Escherichia coli [37] = assay: Antimicrobial activity against Escherichia coli 25922 assessed as absence bacterial growth measured after 18 to 24 hrs incubation in presence of ZnCl2 by NCCLS method; type: functional; conditions: time 18-24 hrs
Escherichia coli [38] = assay: Antimicrobial activity against Escherichia coli 25922 assessed as absence bacterial growth measured after 18 to 24 hrs incubation in presence of FeCl3 by NCCLS method; type: functional; conditions: time 18-24 hrs
Erythrocyte = assay: Hemolytic activity in human RBC at effective concentration measured after 1 hr by microplate reader analysis; type: toxicity, cell-based
[39] = Cytotoxicity against mouse RAW264.7 cells assessed as cell survival rate measured after 8 hrs by MTT assay; type: toxicity, cell-based
[40] = Cytotoxicity against human HEK-293T cells assessed as cell survival rate measured after 8 hrs by MTT assay; type: toxicity, cell-based
[41] = Cytotoxicity against porcine IPEC-J2 cells assessed as cell survival rate measured after 8 hrs by MTT assay; type: toxicity, cell-based, Sus scrofa; conditions: pig

## H-MKLWLKGGKLWLKGGKLWLKG-NH2
Escherichia coli [1]
  MIC: 4 µM
Escherichia coli [2]
  MIC: 1 µM
Salmonella typhimurium [3]
  MIC: 16 µM
[4]
  MIC: 2 µM
Pseudomonas aeruginosa [5]
  MIC: > 32 µM
Acinetobacter baumannii [6]
  MIC: 8 µM
Enterococcus faecalis [7]
  MIC: > 32 µM
Listeria monocytogenes [8]
  MIC: > 32 µM
Bacillus cereus [9]
  MIC: > 32 µM
Staphylococcus aureus [10]
  MIC: > 32 µM
Staphylococcus aureus [11]
  MIC: > 32 µM
[12]
  MIC: > 32 µM
Staphylococcus aureus [13]
  MIC: > 32 µM
Escherichia coli [14]
  MBC: 4 µM
Escherichia coli [15]
  MBC: 2 µM
Salmonella typhimurium [16]
  MBC: 16 µM
Salmonella typhimurium [17]
  MBC: 32 µM
[18]
  MBC: 2 µM
Pseudomonas aeruginosa [19]
  MBC: > 32 µM
Acinetobacter baumannii [20]
  MBC: 16 µM
Enterococcus faecalis [21]
  MBC: > 32 µM
Listeria monocytogenes [22]
  MBC: > 32 µM
Bacillus cereus [23]
  MBC: > 32 µM
Staphylococcus aureus [24]
  MBC: > 32 µM
Staphylococcus aureus [25]
  MBC: > 32 µM
[26]
  MBC: > 32 µM
Staphylococcus aureus [27]
  MBC: > 32 µM
Salmonella typhimurium [28]
  MIC: 8 µM
Escherichia coli [29]
  MIC: > 32 µM
Escherichia coli [30]
  MIC: 32 µM
Escherichia coli [31]
  MIC: 32 µM
[32]
  hemolysis at 1 h, 128 µM: < 10%
Escherichia coli [33]
  MIC: 16 µM
Escherichia coli [34]
  MIC: 4 µM
Escherichia coli [35]
  MIC: 4 µM
Escherichia coli [36]
  MIC: > 32 µM
Escherichia coli [37]
  MIC: 4 µM
Escherichia coli [38]
  MIC: 4 µM
Erythrocyte
  HC10: 128 µM
[39]
  IC50 at 8 h: > 64 µM
[40]
  IC50 at 8 h: > 64 µM
[41]
  IC50 at 8 h: 41 µM

## H-VKLWLKGGKLWLKGGKLWLKG-NH2
Escherichia coli [1]
  MIC: 4 µM
Escherichia coli [2]
  MIC: 1 µM
Salmonella typhimurium [3]
  MIC: 8 µM
[4]
  MIC: 2 µM
Pseudomonas aeruginosa [5]
  MIC: > 32 µM
Acinetobacter baumannii [6]
  MIC: 4 µM
Enterococcus faecalis [7]
  MIC: > 32 µM
Listeria monocytogenes [8]
  MIC: > 32 µM
Bacillus cereus [9]
  MIC: > 32 µM
Staphylococcus aureus [10]
  MIC: > 32 µM
Staphylococcus aureus [11]
  MIC: > 32 µM
[12]
  MIC: > 32 µM
Staphylococcus aureus [13]
  MIC: > 32 µM
Escherichia coli [14]
  MBC: 16 µM
Escherichia coli [15]
  MBC: 1 µM
Salmonella typhimurium [16]
  MBC: 16 µM
Salmonella typhimurium [17]
  MBC: 32 µM
[18]
  MBC: 4 µM
Pseudomonas aeruginosa [19]
  MBC: > 32 µM
Acinetobacter baumannii [20]
  MBC: 16 µM
Enterococcus faecalis [21]
  MBC: > 32 µM
Listeria monocytogenes [22]
  MBC: > 32 µM
Bacillus cereus [23]
  MBC: > 32 µM
Staphylococcus aureus [24]
  MBC: > 32 µM
Staphylococcus aureus [25]
  MBC: > 32 µM
[26]
  MBC: > 32 µM
Staphylococcus aureus [27]
  MBC: > 32 µM
Salmonella typhimurium [28]
  MIC: 8 µM
Escherichia coli [29]
  MIC: > 32 µM
Escherichia coli [30]
  MIC: 32 µM
Escherichia coli [31]
  MIC: 16 µM
[32]
  hemolysis at 1 h, 128 µM: < 10%
Escherichia coli [33]
  MIC: > 32 µM
Escherichia coli [34]
  MIC: 4 µM
Escherichia coli [35]
  MIC: 8 µM
Escherichia coli [36]
  MIC: > 32 µM
Escherichia coli [37]
  MIC: 4 µM
Escherichia coli [38]
  MIC: 4 µM
Erythrocyte
  HC10: > 128 µM
[39]
  IC50 at 8 h: > 64 µM
[40]
  IC50 at 8 h: > 64 µM
[41]
  IC50 at 8 h: 60.2 µM

## H-WKLWLKGGKLWLKGGKLWLKG-NH2
Escherichia coli [1]
  MIC: 4 µM
Escherichia coli [2]
  MIC: 1 µM
Salmonella typhimurium [3]
  MIC: 4 µM
[4]
  MIC: 1 µM
Pseudomonas aeruginosa [5]
  MIC: 8 µM
Acinetobacter baumannii [6]
  MIC: 4 µM
Enterococcus faecalis [7]
  MIC: > 32 µM
Listeria monocytogenes [8]
  MIC: > 32 µM
Bacillus cereus [9]
  MIC: > 32 µM
Staphylococcus aureus [10]
  MIC: > 32 µM
Staphylococcus aureus [11]
  MIC: 8 µM
[12]
  MIC: 16 µM
Staphylococcus aureus [13]
  MIC: > 32 µM
Escherichia coli [14]
  MBC: 4 µM
Escherichia coli [15]
  MBC: 1 µM
Salmonella typhimurium [16]
  MBC: 8 µM
Salmonella typhimurium [17]
  MBC: 32 µM
[18]
  MBC: 2 µM
Pseudomonas aeruginosa [19]
  MBC: 16 µM
Acinetobacter baumannii [20]
  MBC: 4 µM
Enterococcus faecalis [21]
  MBC: > 32 µM
Listeria monocytogenes [22]
  MBC: > 32 µM
Bacillus cereus [23]
  MBC: > 32 µM
Staphylococcus aureus [24]
  MBC: 8 µM
Staphylococcus aureus [25]
  MBC: > 32 µM
[26]
  MBC: > 32 µM
Staphylococcus aureus [27]
  MBC: > 32 µM
Salmonella typhimurium [28]
  MIC: 4 µM
Escherichia coli [29]
  MIC: > 32 µM
Escherichia coli [30]
  MIC: > 32 µM
Escherichia coli [31]
  MIC: > 32 µM
[32]
  hemolysis at 1 h, 128 µM: < 10%
Escherichia coli [33]
  MIC: 16 µM
Escherichia coli [34]
  MIC: 8 µM
Escherichia coli [35]
  MIC: 8 µM
Escherichia coli [36]
  MIC: > 32 µM
Escherichia coli [37]
  MIC: 4 µM
Escherichia coli [38]
  MIC: 4 µM
Erythrocyte
  HC10: 128 µM
[39]
  IC50 at 8 h: > 64 µM
[40]
  IC50 at 8 h: > 64 µM
[41]
  IC50 at 8 h: 12.9 µM
